Measurements published in ChEMBL document CHEMBL5137094, “Construction of Covalent Bisubstrate Inhibitor of Protein Kinase Reacting with Cysteine Residue at Substrate-Binding Site” (J Med Chem, 2022).
Activity calls are given as the source filed them. No cut-off for these calls is given here.

Columns and labels:
[1] = biological target: T1, cAMP-dependent protein kinase catalytic subunit alpha (Homo sapiens, UniProt P17612); assay: Inhibition of ARC-1063 fluorescent probe binding to recombinant human PKAC-alpha incubated for 1 hr by time-gated luminescence intensity based displacement assay
[2] = biological target: T1, cAMP-dependent protein kinase catalytic subunit alpha; assay: Displacement of ARC-1063 fluorescent probe from recombinant human PKAC-alpha assessed as dissociation half life preincubated for 1 hr followed by photoluminescent probe addition by time-gated luminescence intensity based assay
[3] = biological target: T1, cAMP-dependent protein kinase catalytic subunit alpha; assay: Displacement of ARC-1063 fluorescent probe from recombinant human PKAC-alpha assessed as dissociation equilibrium constant preincubated for 1 hr followed by photoluminescent probe addition by time-gated luminescence intensity based assay
[4] = biological target: T1, cAMP-dependent protein kinase catalytic subunit alpha; assay: Displacement of ARC-1063 fluorescent probe from recombinant human PKAC-alpha assessed as binding constant (kon) preincubated for 1 hr followed by photoluminescent probe addition by time-gated luminescence intensity based assay
[5] = biological target: T1, cAMP-dependent protein kinase catalytic subunit alpha; assay: Binding affinity to human recombinant PKAC-alpha assessed as inactivation constant incubated for 1 hr by time-gated luminescence intensity based displacement assay
[6] = biological target: T1, cAMP-dependent protein kinase catalytic subunit alpha; assay: Binding affinity to human recombinant PKACalpha assessed as compound-protein adduct formation by measuring half life at 30 degreeC
[7] = biological target: T1, cAMP-dependent protein kinase catalytic subunit alpha; assay: Binding affinity to human recombinant PKAC-alpha assessed as reduction in TGLI signal at 10 uM pretreated with compound followed by ARC-1063 fluorescent probe addition by time-gated luminescence intensity based displacement assay; conditions: time 60-480 min, TDE = time-dependent effect
[8] = biological target: T1, cAMP-dependent protein kinase catalytic subunit alpha; assay: Covalent inhibition of human recombinant PKAC-alpha assessed as inhibition constant
[9] = biological target: T1, cAMP-dependent protein kinase catalytic subunit alpha; assay: Inhibition of recombinant human PKAC-alpha assessed as residual activity at 0.1 uM in presence of ATP by radiometric filter-binding assay relative to control
Homo sapiens = organism: Homo sapiens; assay: Selectivity index, ratio of Kd for N-terminal 6His-tagged active recombinant human spiked Akt3 S472D mutant (117 to end residues) to Kd for human recombinant PKACalpha
[10] = biological target: Aurora kinase B (Homo sapiens) (UniProt Q96GD4); assay: Inhibition of N-terminal 6His-tagged active recombinant full length human Aurora B-mediated phosphorylation assessed as residual activity at 100 nM relative to control
Aurora kinase B (Homo sapiens), sequence (Q96GD4 whole entry): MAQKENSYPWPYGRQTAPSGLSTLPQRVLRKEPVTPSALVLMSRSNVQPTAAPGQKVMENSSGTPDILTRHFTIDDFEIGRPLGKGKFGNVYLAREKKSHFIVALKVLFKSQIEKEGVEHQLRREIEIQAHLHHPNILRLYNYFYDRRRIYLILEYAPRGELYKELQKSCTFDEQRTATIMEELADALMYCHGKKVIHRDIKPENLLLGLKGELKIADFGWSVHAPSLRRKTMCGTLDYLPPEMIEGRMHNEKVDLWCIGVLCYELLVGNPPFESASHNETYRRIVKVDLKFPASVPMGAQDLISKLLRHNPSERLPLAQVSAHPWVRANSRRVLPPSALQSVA

[11] = biological target: RAC-alpha serine/threonine-protein kinase (Homo sapiens) (UniProt P31749); assay: Inhibition of human PKBalpha assessed as residual activity at 0.1 uM in presence of ATP by radiometric filter-binding assay relative to control
RAC-alpha serine/threonine-protein kinase (Homo sapiens), sequence (P31749 whole entry): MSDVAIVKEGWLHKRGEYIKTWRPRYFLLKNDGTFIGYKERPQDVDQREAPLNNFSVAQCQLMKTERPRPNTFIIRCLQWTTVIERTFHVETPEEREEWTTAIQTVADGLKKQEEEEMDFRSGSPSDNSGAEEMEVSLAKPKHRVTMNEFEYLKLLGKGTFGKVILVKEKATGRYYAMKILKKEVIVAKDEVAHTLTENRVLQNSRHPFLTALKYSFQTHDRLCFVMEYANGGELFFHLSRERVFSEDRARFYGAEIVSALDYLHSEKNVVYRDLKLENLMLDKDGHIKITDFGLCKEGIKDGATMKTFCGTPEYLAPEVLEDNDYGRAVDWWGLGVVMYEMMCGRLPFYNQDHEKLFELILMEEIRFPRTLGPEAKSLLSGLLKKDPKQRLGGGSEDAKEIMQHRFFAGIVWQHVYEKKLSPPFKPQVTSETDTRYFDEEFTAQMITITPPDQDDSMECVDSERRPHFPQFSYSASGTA

[12] = biological target: T2, Aurora kinase A (Homo sapiens) (UniProt O14965); assay: Inhibition of N-terminal 6His-tagged active recombinant full length human Aurora A-mediated phosphorylation assessed as residual activity at 100 nM relative to control
T2 sequence (whole entry): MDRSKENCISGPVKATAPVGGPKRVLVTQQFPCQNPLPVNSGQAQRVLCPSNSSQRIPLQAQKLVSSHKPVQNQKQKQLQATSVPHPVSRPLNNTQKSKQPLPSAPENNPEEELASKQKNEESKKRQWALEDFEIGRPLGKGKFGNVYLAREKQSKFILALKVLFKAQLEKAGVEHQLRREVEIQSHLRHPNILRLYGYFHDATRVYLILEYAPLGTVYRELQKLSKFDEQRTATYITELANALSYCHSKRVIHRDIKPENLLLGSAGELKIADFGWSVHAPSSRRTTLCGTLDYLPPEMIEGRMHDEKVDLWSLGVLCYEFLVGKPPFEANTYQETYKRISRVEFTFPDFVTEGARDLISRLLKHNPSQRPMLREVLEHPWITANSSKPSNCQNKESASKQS

[13] = biological target: RAC-beta serine/threonine-protein kinase (Homo sapiens) (UniProt P31751); assay: Inhibition of human PKB-beta assessed as residual activity at 0.1 uM in presence of ATP by radiometric filter-binding assay relative to control
RAC-beta serine/threonine-protein kinase (Homo sapiens), sequence (P31751 whole entry): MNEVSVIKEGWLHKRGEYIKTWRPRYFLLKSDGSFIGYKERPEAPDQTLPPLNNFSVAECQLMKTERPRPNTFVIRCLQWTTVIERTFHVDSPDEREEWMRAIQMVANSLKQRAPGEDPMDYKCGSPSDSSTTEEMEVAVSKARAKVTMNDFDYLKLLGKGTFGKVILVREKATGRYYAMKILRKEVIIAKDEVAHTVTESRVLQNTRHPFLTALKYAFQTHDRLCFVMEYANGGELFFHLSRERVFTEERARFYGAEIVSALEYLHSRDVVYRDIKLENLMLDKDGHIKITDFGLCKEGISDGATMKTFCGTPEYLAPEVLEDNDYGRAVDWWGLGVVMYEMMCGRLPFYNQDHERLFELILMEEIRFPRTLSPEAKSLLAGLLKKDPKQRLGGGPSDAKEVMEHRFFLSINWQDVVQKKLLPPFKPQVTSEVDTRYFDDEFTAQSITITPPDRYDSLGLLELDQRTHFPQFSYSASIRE

[14] = biological target: Ribosomal protein S6 kinase alpha-5 (Homo sapiens) (UniProt O75582); assay: Inhibition of N-terminal 6His-tagged recombinant human spiked MSK1 (2 to end residues) assessed as residual activity relative to control
Ribosomal protein S6 kinase alpha-5 (Homo sapiens), sequence (O75582 whole entry, looked up, the tested form may be a part): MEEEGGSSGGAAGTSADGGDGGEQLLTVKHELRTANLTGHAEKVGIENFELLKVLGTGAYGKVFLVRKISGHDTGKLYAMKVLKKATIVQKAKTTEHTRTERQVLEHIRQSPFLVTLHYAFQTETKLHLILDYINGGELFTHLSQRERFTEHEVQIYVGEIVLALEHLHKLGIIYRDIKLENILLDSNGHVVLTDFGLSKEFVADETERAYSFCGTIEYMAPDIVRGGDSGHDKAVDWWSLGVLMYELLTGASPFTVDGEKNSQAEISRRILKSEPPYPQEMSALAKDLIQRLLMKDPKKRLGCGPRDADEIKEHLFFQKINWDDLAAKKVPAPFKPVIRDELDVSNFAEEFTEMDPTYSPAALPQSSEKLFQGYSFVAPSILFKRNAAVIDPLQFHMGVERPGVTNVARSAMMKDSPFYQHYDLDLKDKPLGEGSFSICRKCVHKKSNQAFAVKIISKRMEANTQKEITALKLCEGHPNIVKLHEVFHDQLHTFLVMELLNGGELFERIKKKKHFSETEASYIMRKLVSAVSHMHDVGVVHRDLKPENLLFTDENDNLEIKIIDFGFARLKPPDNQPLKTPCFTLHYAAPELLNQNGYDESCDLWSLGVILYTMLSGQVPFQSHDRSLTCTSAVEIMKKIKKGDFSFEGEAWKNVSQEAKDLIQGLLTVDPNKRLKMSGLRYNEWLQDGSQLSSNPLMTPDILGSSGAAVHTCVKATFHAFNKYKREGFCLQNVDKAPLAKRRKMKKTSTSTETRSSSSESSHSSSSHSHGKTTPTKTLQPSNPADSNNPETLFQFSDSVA

[15] = biological target: Rho-associated protein kinase 2 (Homo sapiens) (UniProt O75116); assay: Inhibition of recombinant human GST-tagged ROCK-2 catalytic domain (1 to 552 residues) assessed as residual activity at 0.1 uM in presence of ATP by radiometric filter-binding assay relative to control
Rho-associated protein kinase 2 (Homo sapiens), sequence (O75116 whole entry, looked up, the tested form may be a part): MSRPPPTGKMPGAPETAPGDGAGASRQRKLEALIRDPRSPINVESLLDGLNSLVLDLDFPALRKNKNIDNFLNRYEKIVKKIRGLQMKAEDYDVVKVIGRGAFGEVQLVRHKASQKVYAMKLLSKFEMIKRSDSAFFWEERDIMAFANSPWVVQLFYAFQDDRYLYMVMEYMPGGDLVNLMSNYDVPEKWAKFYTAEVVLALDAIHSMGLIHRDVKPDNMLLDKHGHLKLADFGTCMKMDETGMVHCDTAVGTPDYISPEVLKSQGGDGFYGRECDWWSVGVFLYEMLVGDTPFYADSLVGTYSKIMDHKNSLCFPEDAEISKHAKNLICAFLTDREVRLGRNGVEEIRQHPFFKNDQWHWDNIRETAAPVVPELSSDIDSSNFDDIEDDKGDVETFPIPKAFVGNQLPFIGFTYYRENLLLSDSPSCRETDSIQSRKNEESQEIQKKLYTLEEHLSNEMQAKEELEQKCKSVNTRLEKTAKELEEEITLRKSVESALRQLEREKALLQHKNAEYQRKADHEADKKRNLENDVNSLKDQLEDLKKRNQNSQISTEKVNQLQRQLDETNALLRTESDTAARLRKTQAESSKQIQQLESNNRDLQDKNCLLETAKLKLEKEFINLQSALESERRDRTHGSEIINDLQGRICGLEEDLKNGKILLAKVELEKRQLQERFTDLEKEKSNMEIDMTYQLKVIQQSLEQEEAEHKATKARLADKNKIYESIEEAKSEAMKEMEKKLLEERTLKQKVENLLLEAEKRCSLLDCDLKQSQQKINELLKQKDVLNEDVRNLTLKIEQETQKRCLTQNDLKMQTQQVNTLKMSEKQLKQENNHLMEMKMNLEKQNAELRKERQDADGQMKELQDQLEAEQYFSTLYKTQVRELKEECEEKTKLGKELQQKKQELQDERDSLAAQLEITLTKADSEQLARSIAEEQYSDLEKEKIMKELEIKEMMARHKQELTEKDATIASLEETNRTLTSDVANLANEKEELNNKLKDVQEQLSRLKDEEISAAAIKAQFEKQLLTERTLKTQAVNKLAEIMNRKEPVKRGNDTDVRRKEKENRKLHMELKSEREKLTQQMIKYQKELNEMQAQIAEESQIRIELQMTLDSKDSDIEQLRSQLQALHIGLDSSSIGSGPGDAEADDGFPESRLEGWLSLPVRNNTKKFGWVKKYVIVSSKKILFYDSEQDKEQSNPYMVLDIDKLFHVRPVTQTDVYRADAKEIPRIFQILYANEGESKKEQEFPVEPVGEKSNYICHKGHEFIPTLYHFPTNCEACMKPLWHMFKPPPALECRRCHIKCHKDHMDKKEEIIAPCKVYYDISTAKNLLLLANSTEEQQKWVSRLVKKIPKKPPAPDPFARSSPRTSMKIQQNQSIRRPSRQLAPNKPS

[16] = biological target: T2, Aurora kinase A (Homo sapiens); assay: Binding affinity to N-terminal 6His-tagged active recombinant full length human spiked Aurora A in human PC-3 cell lysates assessed as irreversible compound-protein adduct formation by measuring remaining activity at 150 nM incubated for 1 hr by Aurora A antibody immunostaining based Western blot analysis; format: subcellular
[17] = biological target: T1, cAMP-dependent protein kinase catalytic subunit alpha; assay: Binding affinity to recombinant human spiked PKAC-alpha in human U2OS cell lysates assessed as covalent compound-protein adduct formation at 1.5 uM incubated for 1 hr in presence of PK inhibitor, staurosporin by 5-TAMRA dye based Western blot analysis; format: subcellular
[18] = biological target: cAMP-dependent protein kinase catalytic subunit beta (Homo sapiens) (UniProt P22694); assay: Binding affinity to recombinant full length human spiked PKAC-beta in human PC-3 cell lysates assessed as irreversible compound-protein adduct formation at 150 nM incubated for 1 hr by 5-TAMRA dye based Western blot analysis; format: subcellular
[19] = tested on: RAC-gamma serine/threonine-protein kinase (Homo sapiens), Q9Y243 [S472D]; assay: (§1) Binding affinity to N-terminal 6His-tagged active recombinant human spiked Akt3 S472D mutant (117 to end residues) in human PC-3 cell lysates assessed as irreversible compound-protein adduct formation at 150 nM incubated for 1 hr by 5-TAMRA dye based Western blot analysis; format: subcellular
RAC-gamma serine/threonine-protein kinase (Homo sapiens), Q9Y243 [S472D], sequence (Q9Y243 whole entry S472D): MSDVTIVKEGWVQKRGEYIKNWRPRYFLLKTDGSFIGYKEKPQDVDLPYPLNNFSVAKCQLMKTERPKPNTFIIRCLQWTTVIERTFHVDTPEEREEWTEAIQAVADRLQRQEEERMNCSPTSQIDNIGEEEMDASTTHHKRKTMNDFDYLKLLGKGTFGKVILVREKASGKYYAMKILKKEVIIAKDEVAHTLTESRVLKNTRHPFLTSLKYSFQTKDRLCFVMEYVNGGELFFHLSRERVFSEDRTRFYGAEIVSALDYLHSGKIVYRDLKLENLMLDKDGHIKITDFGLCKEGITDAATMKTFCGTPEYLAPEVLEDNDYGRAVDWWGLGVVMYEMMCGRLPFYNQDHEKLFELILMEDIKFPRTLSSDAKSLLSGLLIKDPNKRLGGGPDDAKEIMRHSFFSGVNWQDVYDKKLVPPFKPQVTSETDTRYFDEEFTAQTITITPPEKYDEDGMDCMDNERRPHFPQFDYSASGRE

[20] = biological target: T1, cAMP-dependent protein kinase catalytic subunit alpha; assay: Binding affinity to recombinant human active PKAC-alpha assessed as compound-protein adduct formation by measuring formation of three bands at 1.5 uM incubated for 1 hr by 5-TAMRA dye based immunostaining analysis
[21] = biological target: Ribosomal protein S6 kinase alpha-5 (Homo sapiens) (UniProt O75582); assay: Binding affinity to N-terminal 6His-tagged recombinant human spiked MSK1 (2 to end residues) in human PC-3 cell lysates assessed as irreversible compound-protein adduct formation at 150 nM incubated for 1 hr by 5-TAMRA dye based Western blot analysis; format: subcellular
[22] = biological target: cAMP-dependent protein kinase catalytic subunit beta (Homo sapiens) (UniProt P22694); assay: Binding affinity to recombinant full length human spiked PKAC-beta in human PC-3 cell lysates assessed as irreversible compound-protein adduct formation by measuring remaining activity at 150 nM measured after 1 hr by […] immunostaining based Western blot analysis; format: subcellular
[23] = biological target: T1, cAMP-dependent protein kinase catalytic subunit alpha; assay: Binding affinity to recombinant human spiked PKAC-alpha in human HeLa cells assessed as covalent compound-protein adduct formation by measuring multiple fluorescent band formation at 1.5 uM incubated for 1 hr by 5-TAMRA dye based Western blot analysis; format: cell-based
[24] = biological target: T1, cAMP-dependent protein kinase catalytic subunit alpha; assay: Binding affinity to recombinant human spiked PKAC-alpha in human HeLa cells assessed as covalent compound-protein adduct formation by measuring multiple fluorescent band formation at 150 nM incubated for 1 hr by 5-TAMRA dye based Western blot analysis; format: cell-based
[25] = biological target: T1, cAMP-dependent protein kinase catalytic subunit alpha; assay: Binding affinity to recombinant human spiked PKAC-alpha in human PC-3 cell lysates assessed as covalent compound-protein adduct formation at 15 nM incubated for 1 hr by 5-TAMRA dye based Western blot analysis; format: subcellular
[26] = biological target: T1, cAMP-dependent protein kinase catalytic subunit alpha; assay: Binding affinity to recombinant human spiked PKAC-alpha in human U2OS cell lysates assessed as covalent compound-protein adduct formation at 1.5 uM incubated for 1 hr by 5-TAMRA dye based Western blot analysis; format: subcellular
[27] = tested on: RAC-gamma serine/threonine-protein kinase (Homo sapiens), Q9Y243 [S472D]; assay: as §1, with “formation by measuring remaining activity” for “formation”, “Akt3 antibody immunostaining” for “5-TAMRA dye”; format: subcellular
[28] = biological target: T1, cAMP-dependent protein kinase catalytic subunit alpha; assay: Binding affinity to recombinant human spiked PKAC-alpha in human U2OS cell lysates assessed as covalent compound-protein adduct formation at 1.5 uM incubated for 1 hr in presence of GSH by 5-TAMRA dye based Western blot analysis; format: subcellular
[29] = biological target: T2, Aurora kinase A (Homo sapiens); assay: Binding affinity to N-terminal 6His-tagged active recombinant full length human spiked Aurora A in human PC-3 cell lysates assessed as irreversible compound-protein adduct formation at 150 nM incubated for 1 hr by 5-TAMRA dye based Western blot analysis; format: subcellular

CC[C@H](C)[C@H](NC(=O)CCC(=O)N[C@@H](CCCCNC(=O)[C@@H](CCCNC(=N)N)NC(=O)CCCCCCCC(=O)N1CCN(c2ncnc3[nH]ccc23)CC1)C(=O)N[C@H](CCCNC(=N)N)C(N)=O)C(=O)NCC(C)=O
IC50 [1]: 790 nM | T1/2 [2]: 0.5 min | Kd [3]: 0.63 nM | K [4]: 3.8 10^7/M/s

CC[C@H](C)[C@H](NC(=O)CCC(=O)N[C@@H](CCCCNC(=O)[C@@H](CCCNC(=N)N)NC(=O)CCCCCCCC(=O)N1CCN(c2ncnc3[nH]ccc23)CC1)C(N)=O)C(=O)NCC(C)=O
IC50 [1]: 6100 nM | T1/2 [2]: 0.1 min | Kd [3]: 4.2 nM | K [4]: 3.3 10^7/M/s

CC[C@H](C)[C@H](NC(=O)CCC(=O)N[C@@H](CCCCNC(=O)[C@@H](CCCNC(=N)N)NC(=O)CCCCCCCC(=O)N1CCN(c2ncnc3[nH]ccc23)CC1)C(N)=O)C(=O)NCC(=O)CF
Kinact [5]: 3.3 10^-5/s | T1/2 [6]: 346 min | Activity [7]: Tde | T1/2 [2]: > 150 min | Ki [8]: 4.2 nM

CC[C@H](C)[C@H](NC(=O)CCC(=O)N[C@@H](CCCCNC(=O)[C@@H](CCCNC(=N)N)NC(=O)CCCCCCCC(=O)N1CCN(c2ncnc3[nH]ccc23)CC1)C(=O)N[C@H](CCCNC(=N)N)C(=O)N[C@H](CCCNC(=N)N)C(N)=O)C(=O)NCC(C)=O
Activity [9]: 2% | Ratio (Homo sapiens): 200 | Activity [10]: 93% | Activity [11]: 8% | Activity [12]: 102% | IC50 [1]: 24 nM | T1/2 [2]: 4.5 min | Kd [3]: 0.019 nM | Activity [13]: 9% | Activity [14]: 21% | Activity [15]: 8% | K [4]: 1.4 10^8/M/s

CC[C@H](C)[C@H](NC(=O)CCC(=O)N[C@@H](CCCCNC(=O)[C@@H](CCCNC(=N)N)NC(=O)CCCCCCCC(=O)N1CCN(c2ncnc3[nH]ccc23)CC1)C(=O)N[C@H](CCCNC(=N)N)C(=O)N[C@H](CCCNC(=N)N)C(=O)N[C@H](CCCCNC(=O)c1ccc(-c2c3ccc(=[N+](C)C)cc-3oc3cc(N(C)C)ccc23)c(C(=O)O)c1)C(N)=O)C(=O)NCC(=O)CF
Activity [16]: Active | Activity [17]: Active | Activity [18]: Active | Activity [19]: Active | Activity [20]: Active | Activity [21]: Active | Activity [22]: Active | Activity [23]: Active | Activity [24]: Active | Activity [25]: Active | Activity [26]: Active | Activity [27]: Active | Activity [28]: Active | Activity [29]: Active

CC[C@H](C)[C@H](NC(=O)CCC(=O)N[C@@H](CCCCNC(=O)[C@@H](CCCNC(=N)N)NC(=O)CCCCCCCC(=O)N1CCN(c2ncnc3[nH]ccc23)CC1)C(=O)N[C@H](CCCNC(=N)N)C(=O)N[C@H](CCCNC(=N)N)C(=O)N[C@H](CCCNC(=N)N)C(N)=O)C(=O)NCC(C)=O
IC50 [1]: 5.6 nM | T1/2 [2]: 11.1 min | Kd [3]: 0.0049 nM | K [4]: 2.2 10^8/M/s
